Test results published in US10144706B2 (BRISTOL-MYERS SQUIBB COMPANY, priority 2016, dated 2018).

target: T1, PD-1/PD-L1 interaction (PD-1-Ig / PD-L1-His) (Homo sapiens, UniProt Q9NZQ7); experiment: PD-1/PD-L1 Homogenous Time-Resolved Fluorescence (HTRF) binding assay; conditions: IC50 range class; PD-L1-His 10 nM, PD-1-Ig 20 nM; read-out: Range or IC50
T1 construct: hPDL1(18-239)-TVMV-His; TVMV protease site linker (C); made in house; host or cells: HEK293T
Outline: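 Human PD-L1-His (10 nM final) was pre-incubated with inhibitor for 15 min, then PD-1-Ig (20 nM final) was added for a further 15 min in dPBS with 0.1% BSA and 0.05% Tween-20. Binding was detected by HTRF using Eu-cryptate anti-Ig (1 nM) and APC anti-His (20 nM).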

T1 sequence (Q9NZQ7 with tags, fused parts or gaps): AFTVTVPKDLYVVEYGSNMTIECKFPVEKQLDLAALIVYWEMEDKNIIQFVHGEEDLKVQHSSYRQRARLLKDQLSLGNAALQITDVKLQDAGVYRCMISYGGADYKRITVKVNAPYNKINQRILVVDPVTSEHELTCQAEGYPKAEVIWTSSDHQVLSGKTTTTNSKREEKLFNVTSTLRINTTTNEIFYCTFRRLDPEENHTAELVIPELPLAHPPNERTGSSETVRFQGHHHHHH

| Compound | IC50 |
| --- | --- |
| Cc1c(OCCCNCC(O)C(C)(C)O)cccc1-c1cccc(OCCCNCC(O)C(C)(C)O)c1C (mixture of isomers) [Example 2029, 4,4′-((((2,2′-dimethyl-[1,1′-biphenyl]-3,3′-diyl)bis(oxy))bis(propane-3,1-diyl))bis(azanediyl))bis(2-methylbutane-2,3-diol)] | 0.04 to 20 nM |
| Cc1c(COc2cc(OCc3cncc(C#N)c3)c(CNC(CCO)C(=O)O)cc2Cl)cccc1-c1cccc(COc2cc(OCc3cncc(C#N)c3)c(CN(CC3CCCO3)C(CCO)C(=O)O)cc2Cl)c1C (stereo not drawn) [Example 41030] | 0.04 to 20 nM |
| Cc1c(NC(=O)NCCN2CC[C@@H](O)C2)cccc1-c1cccc(OCCCN2CC[C@@H](O)C2)c1C [Example 3017, 1-(2-((R)-3-hydroxypyrrolidin-1-yl)ethyl)-3-(3′-(3-((R)-3-hydroxypyrrolidin-1-yl)propoxy)-2,2′-dimethyl-[1,1′-biphenyl]-3-yl)urea] | 1000 to 10000 nM |
| C[C@@](CO)(NCc1cc(Cl)c(OCc2cccc(-c3cccc(COc4cc(OCc5cncc(C#N)c5)c(CN[C@@](C)(CO)C(=O)O)cc4Cl)c3Cl)c2Cl)cc1O)C(=O)O [Example 41170] | 0.04 to 20 nM |
| Cc1c(COc2cc(OCc3cncc(C#N)c3)c(Cl)cc2Cl)cccc1-c1cccc(COc2cc(OCc3cncc(C#N)c3)c(CN[C@H](C(=O)O)[C@@H](C)O)cc2Cl)c1C [Example 70010] | 90.1 to 1000 nM |
| COc1cc(OCc2cccc(-c3cccc(COc4cc(OC)c(CN(C)Cc5cc[nH]n5)cc4Cl)c3C)c2C)c(Cl)cc1CN(C)Cc1cc[nH]n1 [Example 5037, 1,1′-((((2,2′-dimethyl-[1,1′-biphenyl]-3,3′-diyl)bis(methylene))bis(oxy))bis(5-chloro-2-methoxy-4,1-phenylene))bis(N-((1H-pyrazol-3-yl)methyl)-N-methylmethanamine)] | 20.1 to 90 nM |
| Cc1c(COc2cc(OCc3ccc(-n4cccn4)nc3)c(CN(C)[C@@H](CCO)C(=O)O)cc2Cl)cccc1-c1cccc(COc2cc(OCc3ccc(-n4cccn4)nc3)c(CN(C)[C@@H](CCO)C(=O)O)cc2Cl)c1C [Example 5025, (2S,2′S)-2,2′-((((((2,2′-dimethyl-[1,1′-biphenyl]-3,3′-diyl)bis(methylene))bis(oxy))bis(2-((6-(1H-pyrazol-1-yl)pyridin-3-yl)methoxy)-5-chloro-4,1-phenylene))bis(methylene))bis(methylazanediyl))bis(4-hydroxybutanoic acid)] | 0.04 to 20 nM |
| Cc1c(OCCCN(CCO)CCC(C)C)cccc1-c1cccc(OCCCN2CC[C@@H](O)C2)c1C [Example 2073, (R)-1-(3-((3′-(3-((2-hydroxyethyl)(isopentyl)amino)propoxy)-2,2′-dimethyl-[1,1′-biphenyl]-3-yl)oxy)propyl)pyrrolidin-3-ol] | 20.1 to 90 nM |
| Cc1c(OCCCN(C)CC(O)CO)cccc1-c1cccc(OCCCN2CC[C@@H](O)C2)c1C (mixture of isomers) [Example 2015, 3-((3-((3′-(3-((R)-3-hydroxypyrrolidin-1-yl)propoxy)-2,2′-dimethyl-[1,1′-biphenyl]-3-yl)oxy)propyl)(methyl)amino)propane-1,2-diol] | 20.1 to 90 nM |
| CC(=O)c1cc(Cl)c(OCc2cccc(-c3cccc(COc4cc(OCc5cncc(C#N)c5)c(CNC(C)(CO)C(=O)O)cc4Cl)c3Cl)c2Cl)cc1OCc1cncc(C#N)c1 (stereo not drawn) [Example 60060] | 0.04 to 20 nM |
| Cc1c(COc2cc(OCc3cncc(C#N)c3)c(CO)cc2Cl)cccc1-c1cccc(COc2cc(OCc3cncc(C#N)c3)c(CN[C@H](C(=O)O)[C@@H](C)[C@H](C)O)cc2Cl)c1C [Example 50340] | 0.04 to 20 nM |
| Cc1c(OCCCN2C[C@H](O)C[C@H]2C(=O)O)cccc1-c1cccc(OCCCN2C[C@H](O)C[C@H]2C(=O)O)c1Cl [Example 1003, (2S,2′S,4R,4′R)-1,1′-(((2-chloro-2′-methyl-[1,1′-biphenyl]-3,3′-diyl)bis(oxy))bis(propane-3,1-diyl))bis(4-hydroxypyrrolidine-2-carboxylic acid)] | > 10000 nM |
| Cc1c(COc2cc(OCc3cncc(C#N)c3)c(CN[C@@H](C(=O)O)[C@H](C)O)cc2Cl)cccc1-c1cccc(COc2cc(OCc3cncc(C#N)c3)c(CN[C@@H](C(=O)O)[C@@H](C)O)cc2Cl)c1C [Example 41130] | 0.04 to 20 nM |
| Cc1c(OCCCN(CCO)CCO)cccc1-c1cccc(OCCCN2CC[C@@H](O)C2)c1C [Example 2068, (R)-2,2′-((3-((3′-(3-(3-hydroxypyrrolidin-1-yl)propoxy)-2,2′-dimethyl-[1,1′-biphenyl]-3-yl)oxy)propyl)azanediyl)bis(ethan-1-ol)] | 90.1 to 1000 nM |
| COc1ccc(CNCc2cc(Cl)c(OCc3cccc(-c4cccc(COc5cc(OCc6cncc(C#N)c6)c(CNCc6ccc(OC)cc6OC)cc5Cl)c4C)c3C)cc2OCc2cncc(C#N)c2)c(OC)c1 [Example 41230] | 20.1 to 90 nM |
| Cc1c(OCCCNCC(O)CO)cccc1-c1cccc(OCCCNCC(O)CO)c1C (mixture of isomers) [Example 2083, 3,3′-((((2,2′-dimethyl-[1,1′-biphenyl]-3,3′-diyl)bis(oxy))bis(propane-3,1-diyl))bis(azanediyl))bis(propane-1,2-diol)] | 0.04 to 20 nM |
| Cc1c(COc2cc(OCc3cncc(C#N)c3)c(CO)cc2Cl)cccc1-c1cccc(COc2cc(OCc3cncc(C#N)c3)c(CN(CC(C)C)C(CCO)C(=O)O)cc2Cl)c1C (stereo not drawn) [Example 50170] | 0.04 to 20 nM |
| Cc1c(COc2cc(OCc3cc(F)cc(F)c3)c(CN(C)C(C)(CO)CO)cc2Cl)cccc1-c1cccc(COc2cc(OCc3cc(F)cc(F)c3)c(CN(C)C(C)(CO)CO)cc2Cl)c1C [Example 5012, 2,2′-((((((2,2′-dimethyl-[1,1′-biphenyl]-3,3′-diyl)bis(methylene))bis(oxy))bis(5-chloro-2-((3,5-difluorobenzyl)oxy)-4,1-phenylene))bis(methylene))bis(methylazanediyl))bis(2-methylpropane-1,3-diol)] | 20.1 to 90 nM |
| COc1cc(OCc2cccc(-c3cccc(COc4cc(OCc5cncc(C#N)c5)c(CN(C)CCC(=O)O)cc4Cl)c3C)c2C)c(Cl)cc1CN(C)CCC(=O)O [Example 5031, 3-((4-((3′-((4-(((2-carboxyethyl)(methyl)amino)methyl)-2-chloro-5-((5-cyanopyridin-3-yl)methoxy)phenoxy)methyl)-2,2′-dimethyl-[1,1′-biphenyl]-3-yl)methoxy)-5-chloro-2-methoxybenzyl)(methyl)amino)propanoic acid] | 0.04 to 20 nM |
| Cc1c(COc2cc(OCc3cncc(C#N)c3)c(CNC[C@H](O)CO)cc2Cl)cccc1-c1cccc(COc2cc(OCc3cncc(C#N)c3)c(CNC[C@H](O)CO)cc2Cl)c1C [Example 2127, 5,5′-((((((2,2′-dimethyl-[1,1′-biphenyl]-3,3′-diyl)bis(methylene))bis(oxy))bis(4-chloro-6-((((S)-2,3-dihydroxypropyl)amino)methyl)-3,1-phenylene))bis(oxy))bis(methylene))dinicotinonitrile] | 0.04 to 20 nM |
| N#Cc1cncc(COc2cc(OCc3cccc(-c4cccc(COc5cc(OCc6cncc(C#N)c6)c(C(=O)N6CCS(=O)(=O)CC6)cc5Cl)c4Cl)c3Cl)c(Cl)cc2C(=O)N2CCS(=O)(=O)CC2)c1 [Example 80140] | 0.04 to 20 nM |
| Cc1c(OCCCNCCCn2ccnc2)cccc1-c1cccc(OCCCN2CC[C@@H](O)C2)c1C [Example 2020, (R)-1-(3-((3′-(3-((3-(1H-imidazol-1-yl)propyl)amino)propoxy)-2,2′-dimethyl-[1,1′-biphenyl]-3-yl)oxy)propyl)pyrrolidin-3-ol] | 0.04 to 20 nM |
| Cc1c(COc2cc(O)c(CN[C@@](C)(CO)C(=O)O)cc2Cl)cccc1-c1cccc(COc2cc(OCc3cncc(C#N)c3)c(CN[C@@](C)(CO)C(=O)O)cc2Cl)c1C [Example 40130] | 0.04 to 20 nM |
| Cc1c(COc2cc(OCc3cncc(C#N)c3)c(CO)cc2Cl)cccc1-c1cccc(COc2cc(OCc3cncc(C#N)c3)c(CNC(C(=O)O)C(C)O)cc2Cl)c1C (stereo not drawn) [Example 50200] | 0.04 to 20 nM |
| Cc1c(COc2cc(OCc3cncc(C#N)c3)c(CN3CCC[C@H](C(=O)O)C3)cc2Cl)cccc1-c1cccc(COc2cc(OCc3cncc(C#N)c3)c(CN3CCC[C@H](C(=O)O)C3)cc2Cl)c1C [Example 40490] | 0.04 to 20 nM |
| Cc1c(COc2cc(OCc3cncc(C#N)c3)c(CNC(Cc3c[nH]c4ccccc34)C(=O)O)cc2Cl)cccc1-c1cccc(COc2cc(OCc3cncc(C#N)c3)c(CNC(Cc3c[nH]c4ccccc34)C(=O)O)cc2Cl)c1C (stereo not drawn) [Example 40460] | 0.04 to 20 nM |
| Cc1c(COc2cc(OCc3ccc(-n4cccn4)nc3)c(CN3CCCC[C@H]3C(=O)O)cc2Cl)cccc1-c1cccc(COc2cc(OCc3ccc(-n4cccn4)nc3)c(CN3CCCC[C@H]3C(=O)O)cc2Cl)c1C [Example 5021, (2S,2′S)-1,1′-(((((2,2′-dimethyl-[1,1′-biphenyl]-3,3′-diyl)bis(methylene))bis(oxy))bis(2-((6-(1H-pyrazol-1-yl)pyridin-3-yl)methoxy)-5-chloro-4,1-phenylene))bis(methylene))bis(piperidine-2-carboxylic acid)] | 0.04 to 20 nM |
| Cc1c(OCCCNCCc2ccccc2)cccc1-c1cccc(OCCCN2CC[C@@H](O)C2)c1C [Example 2041, (R)-1-(3-((2,2′-dimethyl-3′-(3-(phenethylamino)propoxy)-[1,1′-biphenyl]-3-yl)oxy)propyl)pyrrolidin-3-ol] | 90.1 to 1000 nM |

same assay, conditions: numeric IC50; PD-L1-His 10 nM, PD-1-Ig 20 nM; read-out: Range or IC50

| Compound | IC50 |
| --- | --- |
| Cc1c(OCCCN(Cc2ccccn2)Cc2ccccn2)cccc1-c1cccc(OCCCN2CC[C@@H](O)C2)c1C [Example 2056, (R)-1-(3-((3′-(3-(bis(pyridin-2-ylmethyl)amino)propoxy)-2,2′-dimethyl-[1,1′-biphenyl]-3-yl)oxy)propyl)pyrrolidin-3-ol] | 3180 nM |
| CC1CCN(C(=O)c2cc(Cl)c(OCc3cccc(-c4cccc(COc5cc(OCc6cncc(C#N)c6)c(C(=O)N6CCC(C)CC6)cc5Cl)c4Cl)c3Cl)cc2OCc2cncc(C#N)c2)CC1 [Example 80120] | 105 nM |
